Assay [1] relates to HRV1a. Put plainly: HRV1A HELA EC50 (cytopathic effect in H1-HeLa cells). The conditions noted are these: 96 h, read-out: HRV1A HELA EC50. In kind it is cell-based. How it is done:
H1-HeLa cells, cultured in complete RPMI 1640 medium containing 10% heat-inactivated FBS and 1% Penicillin/Streptomycin, were seeded in 96 well plates at 5000 cells/well one day prior to compound dosing and infection. The antiviral activity of each compound was measured in triplicate. Compounds were added directly to the cell cultures in serial 3-fold dilutions using the HP300 digital dispenser (Hewlett Packard, Palo Alto, CA) immediately prior to infection. The plates were transferred to BSL-2 containment and 100 μL of 1/4000 dilution of HRV1a virus stock was added to each well containing cells and serially diluted compounds. Each plate included 6 wells of infected untreated cells and 6 wells of cells containing 5 μM Rupintrivir that served as 0% and 100% virus inhibition control, respectively. Following the infection, test plates were incubated for 96 h in a tissue culture incubator set to 37° C./5% CO2. Following incubation, the H1-HeLa cells were removed from incubation and allowed to equilibrate to 25° C. Cell viability was determined by removing 100 μL of culture medium and adding 100 μL of Cell-Titer Glo viability reagent. The mixtures were incubated on a shaker for 10 minutes at 25° C., and the luminescence signal was quantified on an Envision luminescence plate reader.

The subject of assay [2] is RSV A strain A2. As to the kind of experiment: RSV HAE EC50 (intracellular RSV RNA by real-time PCR in HAE cells). In kind it is cell-based. The conditions noted are these: human respiratory syncytial virus, 72 h, read-out: RSV HAE EC50. Here is the method: HAE cells are cultured at the air-liquid interface and have an apical side that is exposed to the air and a basal side that is in contact with the medium. Prior to experimentation, HAE were removed from their agar-based shipping packaging and were acclimated to 37° C./5% CO2 overnight in 1 ml of HAE Assay medium (AIR-100-MM, Mattek Corp). HAE were prepared for infection by washing the apical surface twice with 400 μL of PBS (either utilizing direct pipetting methods or by running each transwell through a trough containing PBS) to remove the mucus layer. Apical chambers were drained of PBS and tapped gently onto absorbent material to remove as much PBS as possible. After washing, the cells were transferred to fresh HAE maintenance media containing 4-fold serially diluted compound, delivered to the basal side of the cell monolayer, and apically infected with 100 μL of a 1:600 dilution of RSV A strain A2 1000× stock (ABI, Columbia, MD, cat #10-124-000) in HAE assay medium for 3 hours at 37° C. in 5% CO2. The virus inoculum was removed and the apical surface of the cells was washed 3 times with PBS using either method previously described. The cells were then cultured in the presence of compound for 3 days at 37° C. Following the incubation, total RNA was extracted from the HAE cells using a MagMAX-96 Viral RNA isolation kit (Applied Biosystems, Foster City, CA, Cat #AM1836) and intracellular RSV RNA was quantified by real-time PCR. Approximately 25 ng of purified RNA was added to a PCR reaction mixture that contained 0.9 μM RSV N Forward and RSV N Reverse primers, 0.2 μM RSV N Probe and 1×Taqman RNA-to-Ct 1-Step Kit (Applied Biosystems, Foster City, CA, Cat #4392938). RNA levels were normalized using a Tagman GAPDH control primer set (Applied Biosystems, Foster City, CA, Cat #402869). Real-Time PCR Primers and Probe Used in the RSV A2 HAE Antiviral Assay: […]

pEC50: −log10 of the molar value. Read-outs that look alike come from different tables or passages of the source.

On to `CCC(CC)OC(=O)[C@H](C)NP(=O)(OC[C@@]1(C#N)O[C@@H](c2ccc3c(N)ncnn23)[C@H](O)[C@@H]1O)Oc1ccccc1` (stereo partly drawn) [Example 101, (2S)-pentan-3-yl 2-(((((2R,3S,4R,5S)-5-(4-aminopyrrolo[2,1-f][1,2,4]triazin-7-yl)-2-cyano-3,4-dihydroxytetrahydrofuran-2-yl)methoxy)(phenoxy)phosphoryl)amino)propanoate], for which the pEC50 in assay [1] is 5.79.

As to `CCC(CC)COC(=O)[C@@H](C)NP(=O)(OC[C@@]1(C#N)O[C@@H](c2ccc3c(N)ncnn23)[C@H](O)[C@@H]1O)Oc1ccccc1` (stereo partly drawn) [Example 82, (2R)-2-ethylbutyl 2-(((((2R,3S,4R,5S)-5-(4-aminopyrrolo[2,1-f][1,2,4]triazin-7-yl)-2-cyano-3,4-dihydroxytetrahydrofuran-2-yl)methoxy)(phenoxy)phosphoryl)amino)propanoate], the negative-log EC50 (pEC50) in assay [1] is 5.56.

As for `C[C@H](N[P@](=O)(OC[C@@]1(C#N)O[C@@H](c2ccc3c(N)ncnn23)[C@H](O)[C@@H]1O)Oc1ccccc1)C(=O)O[C@H]1CC[C@H](C(F)(F)F)CC1` (single isomer, unassigned) [Example 18], the negative logarithm of the EC50 (pEC50) in assay [2] (HAE) is 7.57.

Turning to `CCCCCCCCCCCCCCCCCCOC[C@H](COP(=O)(O)OC[C@@]1(C#N)O[C@@H](c2ccc3c(N)ncnn23)[C@H](O)[C@@H]1O)OCc1ccccc1` [Example 96, ((2R,3S,4R,5S)-5-(4-aminopyrrolo[2,1-f][1,2,4]triazin-7-yl)-2-cyano-3,4-dihydroxytetrahydrofuran-2-yl)methyl ((R)-2-(benzyloxy)-3-(octadecyloxy)propyl) hydrogen phosphate], the negative logarithm of the EC50 (pEC50) in assay [1] (H1-HeLa cells) is 5.80; in assay [2] (HAE cells, RSV A2, 3 days) it was 4.65.

For `CC(C)OC(=O)[C@H](C)NP(=O)(OC[C@@]1(C#N)O[C@@H](c2ccc3c(N)ncnn23)[C@H](O)[C@@H]1O)Oc1ccccc1` (mixture of isomers) [Example 77, Isopropyl ((((2R,3S,4R,5S)-5-(4-aminopyrrolo[2,1-f][1,2,4]triazin-7-yl)-2-cyano-3,4-dihydroxytetrahydrofuran-2-yl)methoxy)(phenoxy)phosphoryl)-L-alaninate], the negative-log EC50 (pEC50) in assay [1] is 6.13.

Regarding `CCCCCCCCCCCCCCCCOCCCOP(=O)(O)OC[C@@]1(C#N)O[C@@H](c2ccc3c(N)ncnn23)[C@H](O)[C@@H]1O` [Example 149, ((2R,3S,4R,5S)-5-(4-aminopyrrolo[2,1-f][1,2,4]triazin-7-yl)-2-cyano-3,4-dihydroxytetrahydrofuran-2-yl)methyl (3-(hexadecyloxy)propyl) hydrogen phosphate], the pEC50 in assay [2] (HAE cells, RSV A2, 3 days) was 6.73.

As for `CCC(CC)COC(=O)[C@H](CC)NP(=O)(OC[C@@]1(C#N)O[C@@H](c2ccc3c(N)ncnn23)[C@H](O)[C@@H]1O)Oc1ccccc1` (mixture of isomers) [Example 88, (2S)-2-ethylbutyl 2-(((((2R,3S,4R,5S)-5-(4-aminopyrrolo[2,1-f][1,2,4]triazin-7-yl)-2-cyano-3,4-dihydroxytetrahydrofuran-2-yl)methoxy)(phenoxy)phosphoryl)amino)butanoate], the pEC50 in assay [1] is 6.24.

With `CC[C@H](NP(=O)(OC[C@@]1(C#N)O[C@@H](c2ccc3c(N)ncnn23)[C@H](O)[C@@H]1O)Oc1ccccc1)C(=O)OC1CCCCC1` (mixture of isomers) [Example 103, (2S)-cyclohexyl 2-(((((2R,3S,4R,5S)-5-(4-aminopyrrolo[2,1-f][1,2,4]triazin-7-yl)-2-cyano-3,4-dihydroxytetrahydrofuran-2-yl)methoxy)(phenoxy)phosphoryl)amino)butanoate], the pEC50 in assay [1] is 5.99.

Take `C[C@H](NP(=O)(OC[C@@]1(C#N)O[C@@H](c2ccc3c(N)ncnn23)[C@H](O)[C@@H]1O)Oc1ccccc1)C(=O)OC1CCCCC1` (stereo partly drawn) [Example 4, (2S)-cyclohexyl 2-(((((2R,3S,4R,5S)-5-(4-aminopyrrolo[2,1-f][1,2,4]triazin-7-yl)-2-cyano-3,4-dihydroxytetrahydrofuran-2-yl)methoxy)(phenoxy)phosphoryl)amino)propanoate]: the negative logarithm of the EC50 (pEC50) in assay [1] is 6.72.

Take `CCCCCCCCCCCCOC(=O)[C@H](C)NP(=O)(OC[C@@]1(C#N)O[C@@H](c2ccc3c(N)ncnn23)[C@H](O)[C@@H]1O)Oc1ccccc1` (stereo partly drawn) [Example 191, dodecyl ((((2R,3S,4R,5S)-5-(4-aminopyrrolo[2,1-f][1,2,4]triazin-7-yl)-2-cyano-3,4-dihydroxytetrahydrofuran-2-yl)methoxy)(phenoxy)phosphoryl)-L-alaninate]: the pEC50 in assay [2] (HAE) is 7.96.

For `CCC(CC)COC(=O)[C@H](C)N[P@](=O)(OC[C@@]1(C#N)O[C@@H](c2ccc3c(N)ncnn23)[C@H](O)[C@@H]1O)Oc1ccccc1` (single isomer, unassigned) [Example 25], in assay [2] (HAE), the negative-log EC50 (pEC50) was 6.82.

For the compound `CCCCCCCCCCCC(=O)OCCNP(=O)(OC[C@@]1(C#N)O[C@@H](c2ccc3c(N)ncnn23)[C@H](O)[C@@H]1O)Oc1ccccc1` (mixture of isomers) [Example 181, 2-(((((2R,3S,4R,5S)-5-(4-aminopyrrolo[2,1-f][1,2,4]triazin-7-yl)-2-cyano-3,4-dihydroxytetrahydrofuran-2-yl)methoxy)(phenoxy)phosphoryl)amino)ethyl dodecanoate], the pEC50 in assay [2] (HAE) is 6.67.

As to `C[C@H](N[P@](=O)(OC[C@@]1(C#N)O[C@@H](c2ccc3c(N)ncnn23)[C@H](O)[C@@H]1O)Oc1ccccc1)C(=O)O[C@H]1CC[C@H](C(C)(C)C)CC1` (single isomer, unassigned) [Example 22], the pEC50 in assay [2] (HAE) was 7.72.

With `C[C@H](NP(=O)(OC[C@@]1(C#N)O[C@@H](c2ccc3c(N)ncnn23)[C@H](O)[C@@H]1O)Oc1ccccc1)C(=O)OCC1CC1` (mixture of isomers) [Example 8, (2S)-cyclopropylmethyl 2-(((((2R,3S,4R,5S)-5-(4-aminopyrrolo[2,1-f][1,2,4]triazin-7-yl)-2-cyano-3,4-dihydroxytetrahydrofuran-2-yl)methoxy)(phenoxy)phosphoryl)amino)propanoate], the pEC50 in assay [1] was 6.68.

Consider `C[C@H](NP(=O)(OC[C@@]1(C#N)O[C@@H](c2ccc3c(N)ncnn23)[C@H](O)[C@@H]1O)Oc1ccccc1)C(=O)OCC(C)(C)C` (stereo partly drawn) [Example 92, (2S)-neopentyl 2-(((((2R,3S,4R,5S)-5-(4-aminopyrrolo[2,1-f][1,2,4]triazin-7-yl)-2-cyano-3,4-dihydroxytetrahydrofuran-2-yl)methoxy)(phenoxy)phosphoryl)amino)propanoate], for which, in assay [1], the negative logarithm of the EC50 (pEC50) was 7.01.
